According to patent US20230348376A1 (TEIJIN PHARMA LIMITED, priority 2020, published 2023):

Tests used:
[1] = test system: mouse cuprizone model; assay: Myelin regeneration promoting action in mouse cuprizone model (LFB staining of corpus callosum); assay type: in vivo; conditions: 20 μg/kg oral once a day, 4 weeks after 6 weeks cuprizone diet; untreated = 100%
Source text: C57BL/6J mice (8 weeks old, male) were fed a diet containing 0.3% cuprizone (bis(cyclohexanone)oxaldihydrazone) (Research Diets, Inc. #D17042709) for 6 weeks to induce demyelination. Subsequently, the mice were divided into groups of 8 mice based on the body weight, the diet was switched to a cuprizone-free diet (Research Diets, Inc. #D10001), and administration of the test compound or vehicle was started. […] After administration of 4 weeks, the mice were euthanized, perfused with a 4% paraformaldehyde solution, and then brain sampling was performed. The brain sample obtained was embedded in paraffin to prepare a coronal section specimen at Bregma+1. The specimen was stained with Luxor Fast Blue (LFB) to visualize the myelin sheath, and images were acquired using a fluorescence microscope (KEYENCE #BZ-X710). The corpus callosum area and the LFB staining positive area in the corpus callosum of the obtained pathological specimen image were measured using an image analysis application (KEYENCE #BZ-H3C/BZ-H3XD), and the ratio (LFB staining positive area in the corpus callosum/corpus callosum area) was calculated. The intact group is a non-pathogenic group, and the […] control group were sampled after feeding the diet containing 0.3% cuprizone for 6 weeks.
In the table, the ratio of LFB staining positive area in the corpus callosum/corpus callosum area of the untreated group, fed with the cuprizone-free diet for 6 weeks, was regarded as 100%. As a result, the control group, fed with the cuprizone-containing diet for 6 weeks, decreased the ratio to 23.6%, and was confirmed to progress demyelination. The group, in which the cuprizone-containing diet was fed for 6 weeks and switched to the cuprizone-free diet, and the vehicle was administered, improved the ratio of area of LFB staining positive/area of corpus callosum to 50.1%. […] In addition, GSK239512 described in WO2013/107336 pamphlet was evaluated in the test to show the ratio of LFB staining positive area/corpus callosum area of 45.8%, in which no demyelination regeneration promoting action was shown as compared with the vehicle-administered group.

[2] = Evaluation of brain penetration in mice (blood and brain concentration at brain Cmax); assay type: in vivo, mouse; conditions: 1 mg/kg single oral dose, C57BL/6J mice
Procedure, shortened: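 Male C57BL/6J mice (8 weeks, n=3) dosed orally once at 1 […] mg/kg; plasma and brain collected at 0.25, 0.5, 1, 2, 4 and 8 h. Compound extracted with acetonitrile from brain homogenate and plasma, quantified by LC/MS/MS.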

C[C@H](CCN1CCOCC1)[C@H]1CC[C@H]2/C(=C/C=C3C[C@@H](O)C[C@H](O)C3)CCC[C@]12C [Compound D023, (1R,3R)-5-(2-((1R,3aS,7aR,E)-7a-methyl-1-((R)-4-morpholinobutan-2-yl)octahydro-4H-inden-4-ylidene)ethylidene)cyclohexane-1,3-diol]
Ratio (%): area of LFB staining positive/area of corpus callosum, mean [1]: 87.0%
Concentration in blood (mean ± SD) at brain Cmax ([2]; n=3): 580 ± 107 nM
Concentration in brain (mean ± SD) at brain Cmax ([2]; n=3): 595 ± 23 pmol/g
Kp ([2]; male, C57BL/6J, mouse, brain/plasma, po, 1 mg/kg, read-out: Concentration in brain/in blood ratio at brain Cmax): 1.03
